Each block holds one molecule with its values, some of them ahead of it.
Experiments:
Type in all cases: binding
MATβV1 = target: T1, MATβV1 (Homo sapiens, UniProt Q9NZL9); test: ITC; conditions: read-out: NADP → MATβV1
T1 construct: gene MAT2B; recombinant in E. coli BL21(HC41), HIS-parallel vector; His tag cut with TEV protease; free subunit

MATβV2 = target: T2, MATβV2 (Homo sapiens, UniProt Q9NZL9); test: ITC; conditions: read-out: NADP → MATβV2
T2 construct: gene MAT2B; recombinant in E. coli BL21(DE3), pET-28a(+); His tag cut with thrombin; free subunit
T2 sequence (Q9NZL9 1-323 isoform Q9NZL9-2): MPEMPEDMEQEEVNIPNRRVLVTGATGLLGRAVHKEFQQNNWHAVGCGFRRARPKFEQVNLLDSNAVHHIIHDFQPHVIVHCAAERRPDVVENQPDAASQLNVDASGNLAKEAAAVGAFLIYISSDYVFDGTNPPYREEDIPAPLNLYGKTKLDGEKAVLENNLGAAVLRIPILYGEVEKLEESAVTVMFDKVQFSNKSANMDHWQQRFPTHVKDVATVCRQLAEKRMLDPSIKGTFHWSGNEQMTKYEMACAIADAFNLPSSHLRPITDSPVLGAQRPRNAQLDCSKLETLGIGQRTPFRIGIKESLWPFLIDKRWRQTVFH

MAT(α2)4(βV2)2 [1] = target: T3, MAT(α2)4(βV2)2 (Homo sapiens, UniProt P31153); test: X-ray crystal structure, […] Å; conditions: active site at MATα2 dimer interface; Mg; two of four sites occupied; SAMe also in 4ndn
T3 construct: gene MAT2A; recombinant in E. coli BL21(DE3), assembled in vitro; His tags cut (TEV for MATα2, thrombin for MATβV2); 258 kDa, 4:2 complex; with Methionine adenosyltransferase 2 subunit beta

MAT(α2)4(βV2)2 [2] = target: T3, MAT(α2)4(βV2)2; test: X-ray crystal structure, […] Å; conditions: crystal co-crystallized and soaked with AMPPNP and methionine; SAMe also bound; Mg
MAT(α2)4(βV2)2 [3] = target: T3, MAT(α2)4(βV2)2; test: X-ray crystal structure, […] Å; conditions: crystal co-crystallized and soaked with ATP only; ADO and PO4 at active site; Mg

T3 sequence (P31153 whole entry): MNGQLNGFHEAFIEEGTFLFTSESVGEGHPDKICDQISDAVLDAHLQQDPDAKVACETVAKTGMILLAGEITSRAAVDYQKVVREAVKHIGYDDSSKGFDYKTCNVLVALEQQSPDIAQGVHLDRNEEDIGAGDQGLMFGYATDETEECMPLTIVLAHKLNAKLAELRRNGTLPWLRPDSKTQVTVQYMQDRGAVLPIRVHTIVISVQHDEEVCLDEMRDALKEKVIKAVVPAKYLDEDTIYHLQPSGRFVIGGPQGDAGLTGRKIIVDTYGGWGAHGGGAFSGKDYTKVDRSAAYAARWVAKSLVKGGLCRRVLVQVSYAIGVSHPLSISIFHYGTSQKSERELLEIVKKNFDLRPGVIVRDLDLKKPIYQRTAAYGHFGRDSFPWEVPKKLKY
T3 sequence (Q9NZL9 21-334 partner limits assumed): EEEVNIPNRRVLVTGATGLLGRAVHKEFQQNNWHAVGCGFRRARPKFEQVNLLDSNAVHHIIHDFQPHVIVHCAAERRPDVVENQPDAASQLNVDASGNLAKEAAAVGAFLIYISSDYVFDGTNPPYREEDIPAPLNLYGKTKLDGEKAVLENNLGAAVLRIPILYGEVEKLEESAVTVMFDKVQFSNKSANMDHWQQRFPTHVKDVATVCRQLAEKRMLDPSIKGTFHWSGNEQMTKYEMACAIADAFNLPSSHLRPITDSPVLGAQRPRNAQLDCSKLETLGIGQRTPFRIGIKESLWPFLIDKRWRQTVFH
T1 sequence (Q9NZL9 whole entry): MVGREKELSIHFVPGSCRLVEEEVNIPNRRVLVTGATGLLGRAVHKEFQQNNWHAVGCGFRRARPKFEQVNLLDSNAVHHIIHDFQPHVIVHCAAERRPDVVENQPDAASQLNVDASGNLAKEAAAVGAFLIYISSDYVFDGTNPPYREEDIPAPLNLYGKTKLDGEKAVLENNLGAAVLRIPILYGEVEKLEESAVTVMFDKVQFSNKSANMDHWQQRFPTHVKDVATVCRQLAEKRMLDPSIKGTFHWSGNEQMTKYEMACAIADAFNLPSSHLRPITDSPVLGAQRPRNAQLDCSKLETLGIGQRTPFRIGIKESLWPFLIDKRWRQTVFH

Kd (MATβV1): 8.55 µM
Kd (MATβV2): 8.93 µM
SMILES: NC(=O)c1ccc[n+]([C@@H]2O[C@H](COP(=O)(O)OP(=O)(O)OC[C@H]3O[C@@H](n4cnc5c(N)ncnc54)[C@H](OP(=O)(O)O)[C@@H]3O)[C@@H](O)[C@H]2O)c1 [NADP]

SMILES: C[S+](CC[C@H](N)C(=O)O)C[C@H]1O[C@@H](n2cnc3c(N)ncnc32)[C@H](O)[C@@H]1O (some centres unmarked) [SAMe]
X-ray crystal structure, 2.6 Å (MAT(α2)4(βV2)2 [1]): the presence of SAMe, adenosine (ADO) or PPNP

SMILES: O=P(O)(O)NP(=O)(O)OP(=O)(O)O [PPNP]
X-ray crystal structure, 2.35 Å (MAT(α2)4(βV2)2 [2]): Crystal co-crystallized and soaked with AMPPNP and methionine shows SAMe and PPNP

SMILES: Nc1ncnc2c1ncn2[C@@H]1O[C@H](CO)[C@@H](O)[C@H]1O [adenosine]
X-ray crystal structure, 3.3 Å (MAT(α2)4(βV2)2 [3]): shows adenosine molecule (ADO) and PO4 at the active site
